Measurements taken from the NIST ThermoML archive (doi:10.1021/je800418m).
“And” between values parts separate entries of the source, which are not always exact repeats. Equal values may be shown once.

Conditions: Crystal

N.O=C(O)C(F)(F)C(F)(F)C(F)(F)C(F)(F)C(F)(F)C(F)(F)C(F)(F)F [ammonium perfluorooctanoate]
Conditions	vapor or sublimation pressure
318.35 K	3e-05 kPa
318.45 K	2e-05 kPa
318.55 K	3e-05 kPa and 5e-05 kPa
318.75 K	1e-05 kPa
318.85 K	7e-05 kPa
328.25 K	7e-05 kPa
328.35 K	6e-05 kPa
328.45 K	6e-05 kPa
328.65 K	9e-05 kPa and 0.00019 kPa
328.75 K	4e-05 kPa and 9e-05 kPa and 6e-05 kPa
328.85 K	0.00014 kPa and 6e-05 kPa and 0.00011 kPa
333.15 K	9e-05 kPa
333.35 K	0.00023 kPa
333.65 K	0.00013 kPa [middle of 4 runs]
333.75 K	0.00021 kPa
